Reference: patent US4670540A, “Novel peptide” (Ajinomoto Co., Inc., priority 1984, dated 1987)

Columns and labels:
rat aortic strips = assay: Spasmolytic activity in rat aortic strips; type: cell-based; settings: aortic strips contracted with norepinephrine (5×10^-8 M); specific activity, α-hANP[1-28] = 100; mean ± standard error, number of experiments in parentheses
Procedure: (1) Spasmolytic activity in rat aortic strips. Male Sprague-Dawley rats weighing 250-280 g were used. After the rats were decapitated, their thoracic aorta were obtained and aortic helical strips were prepared. Krebs solution was used in this assay system. The aortic strips were suspended in a 20 ml organ-bath which was aerated with 5% carbon dioxide and 95% oxygen and kept at 37° ±0.5° C. The aortic tension was recorded isotonically. The isotonic recording system, consisted of a transducer and amplifier (ME commercial ME4012) and a recorder (Sanei 8K21). A resting tension of 0.5 g was loaded on the aortic strips. The prepared strips were left under the described conditions for 1 hour to obtain the stable tension. The aortic preparation contracted with norepinephrine (5×10^-8 M) was exposed to ANP to examine its relaxant activity. The dose response curve was obtained for the α-hANP(1-28) and the ANP fragment in the same preparation. The 50% effective dose (ED50) for each preparation was obtained and the ratio was used as the specific activity.

chick rectum = assay: Spasmolytic activity in chick rectum; type: cell-based; settings: rectum contracted with carbachol (2×10^-7 M); specific activity, α-hANP[1-28] = 100; mean ± standard error, number of experiments in parentheses
Procedure: (2) Spasmolytic activity in chick rectum. Male, 2- to 3-week-old chicks weighing 155-175 g were used. After the chicks were anesthetized with pentobarbital (6 mg/kg, ip), their rectums were excised. Krebs solution was used. The rectums were suspended in 20 ml organ-bath aerated with 5% carbon dioxide and 95% oxygen and kept at 37° ±0.5° C. Contractile tension of the rectum was determined isotonically. The isotonic recording system used was the same as that used in testing the rat aortic preparations. The rectal preparations were stabilized by keeping them under 0.5 g of tension conditions for 1 hour. The rectal preparations contracted with carbachol (2×10^-7 M),were exposed to ANP to examine its relaxing effect. As with the rat aortic preparations, ED50 for the standard α-haNP(1-28) and for the ANP fragment were determined, and the specific activity were calculated.

CC[C@H](C)[C@@H]1NC(=O)[C@H](CCCNC(=N)N)NC(=O)[C@H](CC(=O)O)NC(=O)[C@H](CCSC)NC(=O)[C@H](CCCNC(=N)N)NC(=O)CNC(=O)CNC(=O)[C@H](Cc2ccccc2)NC(=O)[C@@H](NC(=O)[C@H](CO)NC(=O)[C@H](CO)NC(=O)[C@H](CCCNC(=N)N)NC(=O)[C@H](CCCNC(=N)N)NC(=O)[C@H](CC(C)C)NC(=O)[C@@H](N)CO)CSSC[C@@H](C(=O)N[C@@H](CC(N)=O)C(=O)N[C@@H](CO)C(=O)N[C@@H](Cc2ccccc2)C(=O)N[C@@H](CCCNC(=N)N)C(=O)N[C@@H](Cc2ccc(O)cc2)C(=O)O)NC(=O)CNC(=O)[C@H](CC(C)C)NC(=O)CNC(=O)[C@H](CO)NC(=O)[C@H](CCC(N)=O)NC(=O)[C@H](C)NC(=O)CNC1=O [α-hANP[1-28], α-human atrial natriuretic peptide]
Spasmolytic Activity in Rat Aorta (ratio of ED50 to the standard hANP (1-28)) (rat aortic strips): 100 | Spasmolytic Activity in Chick Rectum (ratio of ED50 to the standard hANP (1-28)) (chick rectum): 100

(Nle^12)α-hANP(1-28) [[Nle^12]-α-hANP[1-28]]
Spasmolytic Activity in Rat Aorta (ratio of ED50 to the standard hANP (1-28)) (rat aortic strips): 80.5 ± 12.2 | Spasmolytic Activity in Chick Rectum (ratio of ED50 to the standard hANP (1-28)) (chick rectum): 70.3 ± 10.9
